One test has as its system K562. Briefly: Antiproliferative activity against human K562 cells by MTT assay. Type of test: functional, cell-based. (In general: Tetrazolium dyes change colour on reduction, which living cells bring about.)
The target in another test is Tubulin (Sus scrofa, UniProt P02554+P02550). Briefly: Inhibition of pig tubulin polymerization by spectrophotometry. The test is classed as protein assay.
The test system of a further test is MDA-MB-468. The test can be described thus: Antiproliferative activity against human MDA-MB-468 cells expressing NQO1 by MTT assay. The test is classed as functional, cell-based.
The subject of a further test is MCF7. The test can be described thus: Cytotoxicity against human MCF7 cells. The test is classed as functional, cell-based.

One may read the IC50 as the midpoint of a concentration-inhibition curve. `COc1ccc(/C=C/c2cc(OC)c(OC)c(OC)c2)cc1F` had a concentration for half-maximal inhibition (IC50) in the test with K562 above 2500 nM.
For `COc1ccc(/C=C(\C#N)c2cc(OC)c(OC)c(OC)c2)cc1B(O)O`, the IC50 amounted to 20.4 nM in the test with K562, 17400 nM at Tubulin and 35.7 nM in the test on MDA-MB-468.
The corresponding values for `COc1ccc(/C=C(\C#N)c2cc(OC)c(OC)c(OC)c2)cc1I` are 42.6 nM, 43800 nM and 85.3 nM.
`COc1ccc(/C=C/c2cc(OC)c(OC)c(OC)c2)cc1B(O)O`: the IC50 in the test with MCF7 is 470000 nM.
Consider `COc1ccc(/C=C(\C#N)c2cc(OC)c(OC)c(OC)c2)cc1F`, for which the values for the half-maximal inhibitory concentration (IC50) in the test on K562, against Tubulin and in the test with MDA-MB-468 were 18.7 nM, 18500 nM and 20.3 nM, respectively.
For `COc1ccc(/C=C(\C#N)c2cc(OC)c(OC)c(OC)c2)cc1Br` the same measures were 49.5 nM, 35600 nM and 70.6 nM.
The corresponding values for `COc1ccc(/C=C(/C#N)c2cc(OC)c(OC)c(OC)c2)cc1F` are 6.7 nM, 4200 nM and 4.1 nM.
`COc1ccc(/C=C\c2cc(OC)c(OC)c(OC)c2)cc1F` gave a half-maximal inhibitory concentration (IC50) with K562 of 7 nM.
Same read-out and setting: as for `COc1ccc(/C=C/c2cc(OC)c(OC)c(OC)c2)cc1Br`, the figure is 7830 nM.
Take `COc1ccc(/C=C\c2cc(OC)c(OC)c(OC)c2)cc1O` [COMBRETASTATIN A4]: the half-inhibitory concentration (IC50) in the test on K562 amounted to 2.3 nM; in the test with MDA-MB-468, 3.1 nM.
In the case of `C#Cc1cc(/C=C(\C#N)c2cc(OC)c(OC)c(OC)c2)ccc1OC`, the IC50 in the test on K562 amounted to 30.2 nM; at Tubulin it was 25300 nM; with MDA-MB-468, 46.5 nM.
